Reference: patent US7304092B1, “Compounds and methods for treating tumors, cancer and hyperproliferative diseases” (Yale University, priority 2002, dated 2007)
Entries after “also recorded” stand apart in the source; their conditions may differ.

Tests used:
32D cells = test: Low cell density cell proliferation assay, control cell line; format: cell-based, murine; conditions: for control cells surviving: 100 nM
Description: (§1) The acetylenes were prepared by deprotonation of a propiolate (either methyl or tert-butyl) with n-butyllithium and subsequent reaction with an isocyanate (FIG. 4). Modifications may be readily made following the aforementioned schemes. The furan and acetylene libraries were both tested for activity in a cell-based assay where the death of engineered murine myeloid cells (32D-bcr-abl), the survival of which depends on the activity of bcr-abl tyrosine kinase, was sought.
(§2) The biological activity of these compounds was evaluated in two ways, a murine cell line differential proliferation assay and a NCI 60 human carcinoma cell-line growth inhibition and cell death assay. The murine cell death assays were performed using a p210bcrabl transformed 32D murine cell line. […] The NCl assay was performed in the Developmental Therapeutics Program at the National Cancer Institute. This assay measures the inhibition of cell growth and cell death from sixty different human carcinomas. Both the acetylene and furan structural cores represent novel chemical entities with no prior reports of biological activity. […] At present, the use of these compounds is to be preferred in the treatment of tumors and cancer.
(§3) The furan and acetylene libraries were both tested for activity in a cell-based assay where the death of engineered murine myeloid cells (32D-bcr-abl), the survival of which is depends on the activity of bcr-abl tyrosine kinase, was sought.
(§4) Low cell density high throughput cell proliferation assay Between 50 and 100 32D and 32DtetP210Bcr-Abl cells in 100 microliters of medium without serum were exposed to the test compound for 15 minutes. An equal volume of 20% serum supplemented tissue culture medium was then added and the cells were inoculated in single well in 32 wells of a 96 well plate. The endpoint of the assay was the fraction of the 32 wells in which a cell pellet was seen to develop which was filled with live cells. This assay is subject to automated screening by a plate reader for the cell pellet. We used this high throughput assay to screen for compounds that suppress the growth of the 32DtetP210Bcr-Abl cell line in the absence of IL-3, but allow the growth of the 32D cell line in the presence of IL-3. Various concentrations of each compound were tested.

[1] = system: 32DtetP210Bcr-Abl cells (32D-bcr-abl); test: Low cell density cell proliferation / cell death assay, bcr-abl dependent cells; format: cell-based, murine; conditions: for activity (death of 32D-bcr-abl cells) / selectivity (32D-bcr-abl over control cells): result in words; for activity (death of 32D-bcr-abl cells): structure-activity comparison; for selectivity (32D-bcr-abl over control cells): versus control 32D cell line; for activity / selectivity: in words; for inhibition of the 32DtetP210bcrabl cell line: 1 micromolar, FIG. 13, in words
Description: as §1
The biological activity of these compounds was evaluated in two ways, a murine cell line differential proliferation assay and a NCI 60 human carcinoma cell-line growth inhibition and cell death assay. The murine cell death assays were performed using a p210bcrabl transformed 32D murine cell line. […] The NCl assay was performed in the Developmental Therapeutics Program at the National Cancer Institute. This assay measures the inhibition of cell growth and cell death from sixty different human carcinomas.
as §3, §4

[2] = system: carcinoma and model carcinoma cell lines; test: Summary of activity in the cell line assays; format: cell-based; conditions: in words
Description: as §2

[3] = system: 60 human carcinoma cell lines; test: NCI 60 human carcinoma cell-line growth inhibition and cell death assay, whole panel; format: cell-based
Description: as §2
(§5) In order to obtain additional information about the behavior of our compounds in cancerous cells, 18 compounds were submitted to and accepted by the NCl for testing on 60 human carcinoma cell lines as set forth in the examples section. This would confirm the activity seen in our cell-based assay and maybe give an insight into the mechanism of action and biological target of the acetylene/furan compounds. […] As a result, K1P was singled out by the NCl for further testing: MTD (Maximum Tolerated Dose) and murine hollow fiber in vivo assay. These are being carried out at the present time, along with testing of furans AN7A and AN7B in the 60 human cancer cell lines. […]

renal cell lines = test: NCI 60 human carcinoma cell-line growth inhibition assay, renal panel; format: cell-based; conditions: span over the lines
Description: as §2, §5

leukemia cell lines = test: NCI 60 human carcinoma cell-line growth inhibition assay, leukemia panel; format: cell-based; conditions: span over the lines
Description: as §2, §5

CK1 = test: Cell free kinase inhibition assay; format: biochemical
Description: (§6) Cell Free Kinase Inhibition Assay. A panel of 60 kinases (Upstate Biotechnologies, Lake Placid, N.Y.) were analyzed in in vitro cell free kinase assays.

Fyn = molecular target: T1, Fyn (Homo sapiens, UniProt P06241); test: Cell free kinase inhibition assay; format: biochemical
T1 construct: purchased Upstate Biotechnologies, Lake Placid, N.Y
T1 sequence (P06241 whole entry, species assumed): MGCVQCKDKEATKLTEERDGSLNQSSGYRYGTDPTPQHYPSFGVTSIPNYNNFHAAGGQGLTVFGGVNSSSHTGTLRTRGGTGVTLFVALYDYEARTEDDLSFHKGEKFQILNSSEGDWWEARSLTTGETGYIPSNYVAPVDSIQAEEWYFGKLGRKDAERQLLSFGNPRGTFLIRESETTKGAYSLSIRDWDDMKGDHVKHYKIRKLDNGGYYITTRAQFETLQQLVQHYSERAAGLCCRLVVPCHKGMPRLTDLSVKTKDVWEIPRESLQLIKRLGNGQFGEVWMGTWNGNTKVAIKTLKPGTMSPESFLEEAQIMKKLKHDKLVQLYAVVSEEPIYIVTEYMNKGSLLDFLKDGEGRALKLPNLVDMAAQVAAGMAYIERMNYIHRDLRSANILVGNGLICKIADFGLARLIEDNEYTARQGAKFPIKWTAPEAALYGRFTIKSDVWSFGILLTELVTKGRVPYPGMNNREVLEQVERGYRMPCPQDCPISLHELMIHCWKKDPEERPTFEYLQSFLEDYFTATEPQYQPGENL
Description: as §6

PKCbII = molecular target: T2, PKCbII (Homo sapiens, UniProt P05771); test: Cell free kinase inhibition assay; format: biochemical
T2 construct: purchased Upstate Biotechnologies, Lake Placid, N.Y
T2 sequence (P05771 1-673 isoform P05771-2): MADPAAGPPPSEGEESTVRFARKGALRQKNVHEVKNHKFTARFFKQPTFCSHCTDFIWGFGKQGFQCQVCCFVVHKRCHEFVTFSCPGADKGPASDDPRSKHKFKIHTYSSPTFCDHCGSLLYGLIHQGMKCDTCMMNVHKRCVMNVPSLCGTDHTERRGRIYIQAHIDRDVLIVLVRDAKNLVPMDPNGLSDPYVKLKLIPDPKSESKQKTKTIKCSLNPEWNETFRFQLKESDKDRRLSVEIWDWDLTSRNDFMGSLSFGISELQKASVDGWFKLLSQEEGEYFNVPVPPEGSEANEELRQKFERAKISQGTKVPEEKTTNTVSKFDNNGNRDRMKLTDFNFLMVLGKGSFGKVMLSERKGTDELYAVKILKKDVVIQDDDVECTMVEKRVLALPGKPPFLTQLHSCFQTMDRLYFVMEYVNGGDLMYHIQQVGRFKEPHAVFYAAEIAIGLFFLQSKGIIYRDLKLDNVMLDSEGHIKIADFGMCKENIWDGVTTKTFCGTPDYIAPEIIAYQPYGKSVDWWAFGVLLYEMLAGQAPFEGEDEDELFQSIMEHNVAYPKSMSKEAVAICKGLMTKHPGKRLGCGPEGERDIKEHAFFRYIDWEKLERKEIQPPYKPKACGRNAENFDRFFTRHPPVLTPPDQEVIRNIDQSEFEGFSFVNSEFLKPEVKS
Description: as §6

CaMKII = test: Cell free kinase inhibition assay; format: biochemical
Description: as §6

CaMKIV = molecular target: T3, CaMKIV (Homo sapiens, UniProt Q16566); test: Cell free kinase inhibition assay; format: biochemical
T3 construct: purchased Upstate Biotechnologies, Lake Placid, N.Y
T3 sequence (Q16566 1-473): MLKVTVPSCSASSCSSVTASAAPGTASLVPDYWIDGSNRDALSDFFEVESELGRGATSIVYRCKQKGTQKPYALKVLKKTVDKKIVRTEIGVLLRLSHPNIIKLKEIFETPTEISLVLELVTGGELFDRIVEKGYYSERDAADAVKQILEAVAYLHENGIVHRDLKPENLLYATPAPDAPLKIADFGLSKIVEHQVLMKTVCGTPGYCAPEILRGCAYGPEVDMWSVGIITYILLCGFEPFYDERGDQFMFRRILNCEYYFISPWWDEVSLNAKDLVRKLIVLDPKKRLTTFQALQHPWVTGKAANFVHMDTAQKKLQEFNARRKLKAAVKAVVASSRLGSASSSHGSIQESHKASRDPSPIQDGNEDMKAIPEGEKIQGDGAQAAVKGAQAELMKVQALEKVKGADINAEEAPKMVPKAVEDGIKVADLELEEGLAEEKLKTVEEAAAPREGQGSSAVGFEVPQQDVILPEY
Description: as §6

CDK2/cyclinA = molecular target: T4, CDK2/cyclinA (Homo sapiens, UniProt P24941); test: Cell free kinase inhibition assay; format: biochemical
T4 construct: purchased Upstate Biotechnologies, Lake Placid, N.Y
Description: as §6

IKKBeta = molecular target: T5, IKKBeta (Homo sapiens, UniProt O14920); test: Cell free kinase inhibition assay; format: biochemical
T5 construct: purchased Upstate Biotechnologies, Lake Placid, N.Y
T5 sequence (O14920 1-756): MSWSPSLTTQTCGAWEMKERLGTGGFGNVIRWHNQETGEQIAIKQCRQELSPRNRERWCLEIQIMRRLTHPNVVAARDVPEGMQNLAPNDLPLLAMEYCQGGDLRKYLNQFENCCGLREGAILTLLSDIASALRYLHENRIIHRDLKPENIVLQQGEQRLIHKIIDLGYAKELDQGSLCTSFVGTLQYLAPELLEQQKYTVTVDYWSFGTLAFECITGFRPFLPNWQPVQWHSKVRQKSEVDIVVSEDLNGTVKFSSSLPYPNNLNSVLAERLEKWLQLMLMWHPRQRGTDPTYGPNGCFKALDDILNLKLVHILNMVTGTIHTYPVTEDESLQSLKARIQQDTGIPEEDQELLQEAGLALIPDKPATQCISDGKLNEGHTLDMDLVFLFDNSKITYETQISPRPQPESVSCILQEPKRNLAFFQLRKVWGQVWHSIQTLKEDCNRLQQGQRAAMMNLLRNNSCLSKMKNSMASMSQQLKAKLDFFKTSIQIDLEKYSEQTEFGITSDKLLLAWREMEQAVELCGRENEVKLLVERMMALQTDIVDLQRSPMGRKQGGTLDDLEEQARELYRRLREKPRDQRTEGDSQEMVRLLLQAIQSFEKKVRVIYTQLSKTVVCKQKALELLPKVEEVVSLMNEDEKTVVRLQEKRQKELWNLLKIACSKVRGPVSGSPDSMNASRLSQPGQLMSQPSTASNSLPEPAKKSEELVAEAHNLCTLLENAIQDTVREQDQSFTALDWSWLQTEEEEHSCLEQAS
Description: as §6

Lyn = molecular target: T6, Lyn (Homo sapiens, UniProt P07948); test: Cell free kinase inhibition assay; format: biochemical
T6 construct: purchased Upstate Biotechnologies, Lake Placid, N.Y
T6 sequence (P07948 whole entry, species assumed): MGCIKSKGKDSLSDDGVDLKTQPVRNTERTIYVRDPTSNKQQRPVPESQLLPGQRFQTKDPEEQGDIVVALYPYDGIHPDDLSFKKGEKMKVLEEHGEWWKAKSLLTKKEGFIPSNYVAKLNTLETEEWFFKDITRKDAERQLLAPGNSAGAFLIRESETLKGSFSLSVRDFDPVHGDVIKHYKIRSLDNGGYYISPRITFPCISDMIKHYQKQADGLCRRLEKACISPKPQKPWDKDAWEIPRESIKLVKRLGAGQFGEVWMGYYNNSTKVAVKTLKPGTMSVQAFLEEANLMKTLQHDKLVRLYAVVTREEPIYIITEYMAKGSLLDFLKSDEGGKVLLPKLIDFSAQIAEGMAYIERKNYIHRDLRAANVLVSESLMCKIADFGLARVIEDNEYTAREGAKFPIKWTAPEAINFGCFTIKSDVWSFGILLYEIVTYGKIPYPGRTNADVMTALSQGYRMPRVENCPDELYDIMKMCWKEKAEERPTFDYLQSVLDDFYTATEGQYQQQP
Description: as §6

PKCy = molecular target: T7, PKCy (Homo sapiens, UniProt P05129); test: Cell free kinase inhibition assay; format: biochemical
T7 construct: purchased Upstate Biotechnologies, Lake Placid, N.Y
Description: as §6

## CC(C)(C)OC(=O)C#CC(=O)NC1CCCCC1 [AC1]
32D cells
  control cells surviving: 100%
[1]; 100 nM
  leukemic cells surviving: 50%

## COC(=O)C#CC(=O)Nc1c(F)cccc1F [AC9]
[1]
  activity (death of 32D-bcr-abl cells): inactive

## COC(=O)C#CC(=O)Nc1ccccc1 [AC6]
[1]
  activity (death of 32D-bcr-abl cells): increased both selectivity and activity
  selectivity (32D-bcr-abl over control cells): increased both selectivity and activity

## COC(=O)C#CC(=O)Nc1ccccc1OC [AC16]
[1]; 1 uM level
  activity: activity was regained
  selectivity: selectivity remained low

## COC(=O)C#CC1CCCCC1 [AC11]
[1]
  activity (death of 32D-bcr-abl cells): little or no activity

## COC(=O)C#CC(=O)Nc1ccc2ccccc2c1 [AC19]
[2]
  activity against carcinoma and model carcinoma cell lines: good activity
[1]; 100 nM
  activity: excellent activity
  selectivity: shows selectivity
[3]; NCI 60 cell lines
  concentration below which no activity was shown: ≥ 10 µM

## COC(=O)C#CC(=O)NC1CCCCC1 [K1P]
[2]
  activity against carcinoma and model carcinoma cell lines: good activity
32D cells
  control cells surviving: 100%
[1]; 100 nM
  leukemic cells surviving: 50%
[1]
  inhibition of the 32DtetP210bcrabl cell line: inhibitory
Renal cell lines
  GI50: 2.5 to 2.7 µM
Leukemia cell lines
  GI50: 0.8 to 5 µM
CK1
  % Inhibition at 10 μM: 46%
Fyn
  inhibition at 10 µM: 49%
PKCbII
  inhibition at 10 µM: 35%
[3]; certain leukemia, colon cancer, melanoma, renal cancer cell lines and a breast cancer cell line, in words
  activity in the NCI cell lines: enhanced activity

## COC(=O)C#CC(=O)Nc1cccc(OC)c1 [AC15]
[1]; 1 uM level
  activity: activity was regained
  selectivity: selectivity remained low

## COC(=O)C#CC(=O)Nc1cc(OC)cc(OC)c1 [AC17]
[1]; 1 uM level
  activity: activity was regained
  selectivity: selectivity remained low

## COC(=O)C#CC(=O)NCc1ccccc1 [AC13]
[1]
  activity (death of 32D-bcr-abl cells): active
  selectivity (32D-bcr-abl over control cells): little selectivity

## COC(=O)C#CC(=O)Nc1ccc(OC)cc1 [AC3]
[1]
  activity (death of 32D-bcr-abl cells): decreased activity and selectivity dramatically
  selectivity (32D-bcr-abl over control cells): decreased activity and selectivity dramatically

## COC(=O)C#CC(=O)Nc1ccc(Oc2ccccc2)cc1 [AC22]
[2]
  activity against carcinoma and model carcinoma cell lines: good activity
32D cells; similar concentration (1 micromolar), in words
  inhibition of the 32Dtet cell line: inhibits
[1]; 10 nM
  activity: not active
[1]; 100 nM
  activity: excellent activity; also recorded: very active
  selectivity: not selective
[1]
  inhibition of the 32DtetP210bcrabl cell line: inhibitory
[1]; Mus musculus, 10 nanomolar of each drug, 32DtetP210bcrabl cell line, read-out: inhibition of P210bcrabl dependent cell growth
  inhibition at 0.01 µM: 10%
Leukemia cell lines
  GI50: 2.6 to 7.3 µM
CaMKII
  % Inhibition at 10 μM: 40%
CaMKIV
  inhibition at 10 µM: 64%
CDK2/cyclinA
  inhibition at 10 µM: 50%
CK1
  % Inhibition at 10 μM: (37) %
IKKBeta
  inhibition at 10 µM: 45%
Fyn
  inhibition at 10 µM: 29%
Lyn
  inhibition at 10 µM: 98%
PKCbII
  inhibition at 10 µM: 48%
PKCy
  inhibition at 10 µM: 61%

## Cc1ccc(NC(=O)c2ccc(CN3CCN(C)CC3)cc2)cc1Nc1nccc(-c2cccnc2)n1 [STI-571, reference compound]
32D cells; 10 nM, in words
  control cells alive: all the control cells are still alive

## COC(=O)C#CC(=O)Nc1c(C(C)C)cccc1C(C)C [AC10]
[1]
  activity (death of 32D-bcr-abl cells): moderate activity
  selectivity (32D-bcr-abl over control cells): no selectivity

## COC(=O)C#CC(=O)Nc1ccc(-c2ccccc2)cc1 [AC21]
[1]; 100 nM
  activity: excellent activity
  selectivity: only AC19 shows selectivity
